In publication PMC4049246 (The Journal of Organic Chemistry, 2014):

Columns and labels:
ERBB2 = ERBB2 (Homo sapiens, UniProt P04626); assay: Inhibition of NRGβ1-induced ERBB2 tyrosine phosphorylation in MCF7 cells; assay type: cell-based; details: for inhibition of NRGβ1-induced phosphorylation of ERBB2: MCF7 cells
[1] = Octanol/water partition coefficient; assay type: physicochemical
[2] = UV-vis absorption, fluorescence emission and lifetime in chloroform; details: for Δν / ε / ϕem: CHCl3; for ϕem: ±10%, perylene in cyclohexane as reference; for τ1: fluorescence lifetime component 1; for τ2: fluorescence lifetime component 2; for f1: fraction of lifetime component 1; for f2: fraction of lifetime component 2
[3] = physiologically relevant concentrations; cited from earlier work

ERBB2, sequence (P04626 23-1255): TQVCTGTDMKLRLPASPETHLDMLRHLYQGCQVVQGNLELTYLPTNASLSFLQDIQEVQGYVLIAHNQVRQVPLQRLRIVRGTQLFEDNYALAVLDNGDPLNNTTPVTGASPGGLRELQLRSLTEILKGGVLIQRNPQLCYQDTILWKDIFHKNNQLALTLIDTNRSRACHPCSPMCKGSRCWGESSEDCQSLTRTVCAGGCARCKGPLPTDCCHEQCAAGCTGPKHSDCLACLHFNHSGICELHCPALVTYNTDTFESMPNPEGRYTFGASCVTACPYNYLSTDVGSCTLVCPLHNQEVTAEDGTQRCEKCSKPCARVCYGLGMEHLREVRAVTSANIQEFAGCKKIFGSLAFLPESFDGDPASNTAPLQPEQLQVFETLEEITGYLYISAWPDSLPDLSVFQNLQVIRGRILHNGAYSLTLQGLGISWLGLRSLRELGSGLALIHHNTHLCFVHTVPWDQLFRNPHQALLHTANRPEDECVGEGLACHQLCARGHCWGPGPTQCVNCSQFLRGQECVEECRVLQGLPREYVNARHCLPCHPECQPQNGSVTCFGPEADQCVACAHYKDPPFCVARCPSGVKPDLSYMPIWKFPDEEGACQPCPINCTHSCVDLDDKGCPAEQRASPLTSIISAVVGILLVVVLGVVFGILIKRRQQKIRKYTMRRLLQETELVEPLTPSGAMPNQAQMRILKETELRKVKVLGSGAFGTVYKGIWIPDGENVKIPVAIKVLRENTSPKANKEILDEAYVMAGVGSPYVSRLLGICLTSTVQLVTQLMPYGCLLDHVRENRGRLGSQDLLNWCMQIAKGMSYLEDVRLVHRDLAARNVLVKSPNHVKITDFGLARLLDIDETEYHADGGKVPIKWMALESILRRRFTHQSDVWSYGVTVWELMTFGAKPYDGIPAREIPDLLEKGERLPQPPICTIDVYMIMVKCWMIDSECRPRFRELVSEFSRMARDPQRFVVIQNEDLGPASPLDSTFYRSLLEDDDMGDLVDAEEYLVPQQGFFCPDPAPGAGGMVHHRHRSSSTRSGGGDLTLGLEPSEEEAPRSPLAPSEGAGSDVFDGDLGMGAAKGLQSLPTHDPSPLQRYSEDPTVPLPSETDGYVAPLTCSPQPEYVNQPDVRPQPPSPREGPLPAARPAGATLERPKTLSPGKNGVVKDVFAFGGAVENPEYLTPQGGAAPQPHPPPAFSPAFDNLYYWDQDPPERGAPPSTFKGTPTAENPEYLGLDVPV

| Ki (ERBB2) | inhibition of NRGβ1-induced phosphorylation of ERBB2 (ERBB2; 100 nM probe) | inhibition of NRGβ1-induced phosphorylation of ERBB2 (ERBB2; 10 μM probe) | log Poctanol/water [1] | Δν [2] | ε [2] | ϕem [2] | τ1 [2] | τ2 [2] | f1 [2] | f2 [2] | Structure (SMILES) | aggregation [3] |
| --- | --- | --- | --- | --- | --- | --- | --- | --- | --- | --- | --- | --- |
| 10 µM | little to no inhibitory action | showed inhibition | 1.50 | – | – | – | – | – | – | – | CN(C)c1ccc(-c2ccc3ncnc(Nc4ccccc4)c3c2)cc1 [1a, 6-(4-(Dimethylamino)phenyl)-N-phenylquinazolin-4-amine] | – |
| – | – | – | – | 9130 cm^–1 | 14 300 M^–1 cm^–1 | 0.02 | 1.39 ns | 6.76 ns | 0.70 | 0.30 | COc1ccc(-c2ccc3ncnc(Nc4ccccc4)c3c2)cc1 [1b, 6-(4-Methoxyphenyl)-N-phenylquinazolin-4-amine] | – |
| – | – | – | – | 6480 cm^–1 | 19 700 M^–1 cm^–1 | 0.006 | 0.11 ns | 1.56 ns | 0.74 | 0.26 | O=[N+]([O-])c1ccc(-c2ccc3ncnc(Nc4ccccc4)c3c2)cc1 [1e, 6-(4-Nitrophenyl)-N-phenylquinazolin-4-amine] | – |
| – | little to no inhibitory action | showed inhibition | – | – | – | – | – | – | – | – | CN(C)c1ccc(/C=C/c2ccc3ncnc(Nc4ccccc4)c3c2)cc1 [2a, (E)-6-(4-Dimethylaminostyryl)-N-phenylquinazolin-4-amine] | – |
| – | – | – | – | 7350 cm^–1 | 21 900 M^–1 cm^–1 | 0.02 | 0.05 ns | 1.75 ns | 0.11 | 0.89 | C(=C\c1ccc2ncnc(Nc3ccccc3)c2c1)/c1ccccc1 [2c, (E)-N-Phenyl-6-styrylquinazolin-4-amine] | – |
| – | little to no inhibitory action | showed inhibition | – | – | – | – | – | – | – | – | O=[N+]([O-])c1ccc(/C=C/C=C/c2ccc3ncnc(Nc4ccccc4)c3c2)cc1 [3e, 6-((1E,3E)-4-(4-Nitrophenyl)buta-1,3-dienyl)-N-phenylquinazolin-4-amine] | – |
| – | – | – | – | – | – | – | – | – | – | – | CS(=O)(=O)CCNCc1ccc(-c2ccc3ncnc(Nc4ccc(OCc5cccc(F)c5)c(Cl)c4)c3c2)o1 [lapatinib] | significant aggregation |
